Measured values as given in paper PMC4981864, “Novel pH-Sensitive Cyclic Peptides” (Scientific Reports, 2016).
Ends that are not written are not given here. Peptide text beside a SMILES is read from it.

What was measured:
[1] = Steady-state tryptophan fluorescence and CD with and without POPC liposomes; format: physicochemical; settings: for maximum position of the fluorescence spectrum λmax, Pep, pH8: peptide in phosphate buffer pH 8, no liposomes; for maximum position of the fluorescence spectrum λmax, Pep, pH8 / maximum position of the fluorescence spectrum λmax, Pep-PC, pH3 / maximum position of the fluorescence spectrum λmax, Pep-PC, pH8: 5 μM peptide, excitation 280 nm, 25 °C; for maximum position of the fluorescence spectrum λmax, Pep-PC, pH3 / S, normalized area under the spectra, Pep-PC, pH3: with POPC liposomes pH 3; for maximum position of the fluorescence spectrum λmax, Pep-PC, pH3 / maximum position of the fluorescence spectrum λmax, Pep-PC, pH8: 1.25 mM lipids; for S, normalized area under the spectra, Pep-PC, pH3 / S, normalized area under the spectra, Pep-PC, pH8: normalized on area for peptide at pH 8 in absence of POPC; for maximum position of the fluorescence spectrum λmax, Pep-PC, pH8 / S, normalized area under the spectra, Pep-PC, pH8: with POPC liposomes pH 8
Description: (§1) Large unilamellar vesicles (LUVs) were prepared by extrusion. POPC, 1-palmitoyl-2-oleoyl-sn-glycero-3-phosphocholine (Avanti Polar Lipids), or a mixture of POPC with 0.5% of 18:1 NBD-PE, 1,2-dioleoyl-sn-glycero-3-phosphoethanolamine-N-7-nitro-2-1,3-benzoxadiazol-4-yl ammonium salt (Avanti Polar Lipids) were dissolved in chloroform, desolvated on a rotary evaporator, and dried under high vacuum for several hours. The phospholipid film was then rehydrated in 10 mM phosphate buffer pH 8.0, vortexed until the lipid bilayer was completely dissolved, and repeatedly (15–21 times) extruded through the membranes with 50 nm pore sizes to obtain LUVs.
Freshly prepared peptides and POPC vesicles were mixed to have 5 μM of a peptide and 1.25 mM of lipids in the final solution. Steady-state fluorescence measurements were carried out on a PC1 spectrofluorometer (ISS, Inc.) under temperature control at 25 °C. Tryptophan fluorescence was excited at 280 nm (there is no Phe or Tyr in the peptides) and recorded with the excitation and emission slits set at 1 nm. The polarizers in the excitation and emission paths were set at the “magic” angle (54.7° from the vertical orientation) and vertically (0°), respectively. Steady state CD measurements were carried out in MOS 450 spectropolarimeter (Bio-Logic, Inc.) with the same concentrations of peptide and lipids used in fluorescence measurements.

[2] = Dual quenching assay (acrylamide / 10-DN); format: physicochemical; settings: 7 μM peptide, 2.1 mM POPC; for percentage of fluorescence quenching, Pep-PC+AC pH3 / percentage of fluorescence quenching, Pep-PC+AC pH8: 235 mM acrylamide; for percentage of fluorescence quenching, Pep-PC+AC pH3 / percentage of fluorescence quenching, Pep-PC+10-DN pH3: pH 3; for percentage of fluorescence quenching, Pep-PC+AC pH8 / percentage of fluorescence quenching, Pep-PC+10-DN pH8: pH 8; for percentage of fluorescence quenching, Pep-PC+10-DN pH3 / percentage of fluorescence quenching, Pep-PC+10-DN pH8: 10% of lipids replaced by 10-DN
Excerpt: To establish localization of the peptides within a lipid bilayer of membrane, dual quenching assay[28] was employed (Fig. 3 and Table S3). Effective quenching of fluorescence by acrylamide would occur only for tryptophan residues exposed to polar parts of the outer or inner leaflets of the bilayer. At the same time, tryptophan residues located in the middle of a membrane would be effectively quenched by 10-DN. The result of the dual quenching assay allows establishing if tryptophan residues were located in the middle of a membrane or close to the polar headgroups of the bilayer. […] Therefore, we also performed Förster resonance energy transfer (FRET) assay[29] (Fig. 4). First, symmetrically-labelled by NBD dye, POPC liposomes were prepared. Then, membrane-impermeable dithionite was used to chemically modify exposed NBD, which led to the quenching of NBD fluorescence. Thus, NBD dyes located at the outer leaflet of the bilayer were deactivated and excess of dithionite was removed by gel filtration. As a result, asymmetrically-labelled liposomes with active NBD at the inner leaflet were obtained. FRET was monitored from tryptophan residues of the peptides to NBD. Energy transfer might occur only when both fluorophores are in proximity to each other (within 5–15 Å). Thus, when tryptophan residues located at the outer leaflet of the bilayer no significant energy transfer to NBD at the inner leaflet would occur (the distance is about 50–60 Å). […] All other peptides were located at the outer leaflet of the bilayer at pH 8. Drop of pH promoted partitioning of all cyclic peptides into bilayer, which highest FRET for the c[E4W5C] at pH 3.
POPC liposomes without and with 10% of the lipids replaced by 10-doxylnonadecane (10-DN) (Avanti Polar Lipids) were prepared in 10 mM citrate-phosphate buffer pH 8.0. Peptides and POPC liposomes were mixed to generate final concentrations of 7 μM peptide and 2.1 mM POPC without and with 10-DN. […] Quencher, acrylamide (Sigma-Aldrich), was added to the samples of POPC liposomes containing no 10-DN, to have final concentration of 235 mM acrylamide. Concentration of peptides in all samples was kept constant. To observe quenching of tryptophan fluorescence by 10-DN or acrylamide, the tryptophan fluorescence was recorded as described above. The appropriate POPC blanks were measured and subtracted from the measured spectra before analysis. The percentage of quenching was calculated.

[3] = format: physicochemical; settings: pH 8
Description: as §1
pH-dependent partitioning of the peptides into a lipid bilayer of the membrane was investigated by the shift of the position of the fluorescence spectral maximum for the peptides in the presence POPC liposomes induced by a drop of pH from 8 to 2.5 by the addition of HCl. The peptides were incubated overnight with 50-nm POPC liposomes (final concentration of the peptides and POPC in solution was 5 μM and 1 mM, respectively), and pH decrease was achieved by the addition of aliquots of 4, 2, 1 and 0.1 M HCl. pH was measured by micro-electrode probe (Thermo Electron Corporation, Orion Ross Micro pH electrode). Fluorescence spectra were recorded at each pH value. The spectra were analyzed by the decomposition algorithms using on-line PFAST toolkit[47] (Protein Fluorescence and Structural Toolkit: http://pfast.phys.uri.edu/) to establish the position of the emission maximum. Finally, the positions of the fluorescence spectral maxima (λmax) were plotted versus pH, and the Henderson–Hasselbalch equation was used to fit the data (using Origin 8.5 software): […]
where [drawing 3] and [drawing 4] are the beginning and the end of the transition, respectively, and pKa – is the midpoint of the transition.

[4] = tested on: HeLa cells; settings: concentrations used in this study, treatment of 2-4 hours; cited from earlier work
Description: Symmetric, c[(WE)4WC], and asymmetric, c[E4W5C], cyclic peptides were evaluated for their ability to move polar cargo across the membrane. The experiments on live cells were performed at physiologically relevant pHs, such as pH 7.4 (extracellular pH of normal cells) and pH 6.0 (extracellular pH in the vicinity of cancer cells[12]). As a polar cargo, we used amanitin, which is a cell-impermeable cyclic p ...

CC(C)C[C@@H]1NC(=O)[C@H](CS)NC(=O)[C@H](Cc2c[nH]c3ccccc23)NC(=O)[C@H](CCC(=O)O)NC(=O)[C@H](CC(C)C)NC(=O)[C@H](CCC(=O)O)NC(=O)[C@H](CC(C)C)NC(=O)[C@H](CCC(=O)O)NC(=O)[C@H](CC(C)C)NC(=O)[C@H](CCC(=O)O)NC1=O [c[(LE)4WC]] (cyclo(CLELELELEW))
maximum position of the fluorescence spectrum λmax, Pep, pH8 [1]: 348.7±0.3 nm
maximum position of the fluorescence spectrum λmax, Pep-PC, pH3 [1]: 339.6±1.2 nm
S, normalized area under the spectra, Pep-PC, pH3 [1]: 1.1±0.1
maximum position of the fluorescence spectrum λmax, Pep-PC, pH8 [1]: 348.2±0.6 nm
S, normalized area under the spectra, Pep-PC, pH8 [1]: 1.1±0.0
percentage of fluorescence quenching, Pep-PC+AC pH3 [2]: 59%
percentage of fluorescence quenching, Pep-PC+AC pH8 [2]: 96%
percentage of fluorescence quenching, Pep-PC+10-DN pH3 [2]: 17%
percentage of fluorescence quenching, Pep-PC+10-DN pH8 [2]: 0%
apparent pK (pKa) of peptide's partitioning into the bilayer [3]: 4.7

O=C(O)CC[C@@H]1NC(=O)[C@H](Cc2c[nH]c3ccccc23)NC(=O)[C@H](CS)NC(=O)[C@H](Cc2c[nH]c3ccccc23)NC(=O)[C@H](CCC(=O)O)NC(=O)[C@H](Cc2c[nH]c3ccccc23)NC(=O)[C@H](CCC(=O)O)NC(=O)[C@H](Cc2c[nH]c3ccccc23)NC1=O [c[(WE)3WC]] (cyclo(CWEWEWEW))
maximum position of the fluorescence spectrum λmax, Pep, pH8 [1]: 351.0±0.2 nm
maximum position of the fluorescence spectrum λmax, Pep-PC, pH3 [1]: 341.7±0.2 nm
S, normalized area under the spectra, Pep-PC, pH3 [1]: 1.7±0.3
maximum position of the fluorescence spectrum λmax, Pep-PC, pH8 [1]: 349.1±0.7 nm
S, normalized area under the spectra, Pep-PC, pH8 [1]: 0.9±0.1
percentage of fluorescence quenching, Pep-PC+AC pH3 [2]: 63%
percentage of fluorescence quenching, Pep-PC+AC pH8 [2]: 83%
percentage of fluorescence quenching, Pep-PC+10-DN pH3 [2]: 47%
percentage of fluorescence quenching, Pep-PC+10-DN pH8 [2]: 6%
apparent pK (pKa) of peptide's partitioning into the bilayer [3]: 6.1

O=C(O)CC[C@@H]1NC(=O)[C@H](Cc2c[nH]c3ccccc23)NC(=O)[C@H](CS)NC(=O)[C@H](Cc2c[nH]c3ccccc23)NC(=O)[C@H](CCC(=O)O)NC(=O)[C@H](Cc2c[nH]c3ccccc23)NC(=O)[C@H](CCC(=O)O)NC(=O)[C@H](Cc2c[nH]c3ccccc23)NC(=O)[C@H](CCC(=O)O)NC(=O)[C@H](Cc2c[nH]c3ccccc23)NC1=O [c[(WE)4WC]] (cyclo(CWEWEWEWEW))
maximum position of the fluorescence spectrum λmax, Pep, pH8 [1]: 350.5±0.2 nm
maximum position of the fluorescence spectrum λmax, Pep-PC, pH3 [1]: 341.1±0.9 nm
S, normalized area under the spectra, Pep-PC, pH3 [1]: 1.6±0.2
maximum position of the fluorescence spectrum λmax, Pep-PC, pH8 [1]: 347.5±1.2 nm
S, normalized area under the spectra, Pep-PC, pH8 [1]: 1.1±0.1
percentage of fluorescence quenching, Pep-PC+AC pH3 [2]: 50%
percentage of fluorescence quenching, Pep-PC+AC pH8 [2]: 82%
percentage of fluorescence quenching, Pep-PC+10-DN pH3 [2]: 40%
percentage of fluorescence quenching, Pep-PC+10-DN pH8 [2]: 11%
apparent pK (pKa) of peptide's partitioning into the bilayer [3]: 6.4

O=C(O)CC[C@@H]1NC(=O)[C@H](Cc2c[nH]c3ccccc23)NC(=O)[C@H](CS)NC(=O)[C@H](Cc2c[nH]c3ccccc23)NC(=O)[C@H](CCC(=O)O)NC(=O)[C@H](Cc2c[nH]c3ccccc23)NC(=O)[C@H](CCC(=O)O)NC(=O)[C@H](Cc2c[nH]c3ccccc23)NC(=O)[C@H](CCC(=O)O)NC(=O)[C@H](Cc2c[nH]c3ccccc23)NC(=O)[C@H](CCC(=O)O)NC(=O)[C@H](Cc2c[nH]c3ccccc23)NC1=O [c[(WE)5WC]] (cyclo(CWEWEWEWEWEW))
maximum position of the fluorescence spectrum λmax, Pep, pH8 [1]: 350.3±0.2 nm
maximum position of the fluorescence spectrum λmax, Pep-PC, pH3 [1]: 341.2±0.4 nm
S, normalized area under the spectra, Pep-PC, pH3 [1]: 2.1±0.3
maximum position of the fluorescence spectrum λmax, Pep-PC, pH8 [1]: 346.7±1.2 nm
S, normalized area under the spectra, Pep-PC, pH8 [1]: 1.5±0.3
percentage of fluorescence quenching, Pep-PC+AC pH3 [2]: 68%
percentage of fluorescence quenching, Pep-PC+AC pH8 [2]: 78%
percentage of fluorescence quenching, Pep-PC+10-DN pH3 [2]: 40%
percentage of fluorescence quenching, Pep-PC+10-DN pH8 [2]: 13%
apparent pK (pKa) of peptide's partitioning into the bilayer [3]: 6.3

N=C(N)NCCC[C@@H]1NC(=O)[C@H](CS)NC(=O)[C@H](Cc2c[nH]c3ccccc23)NC(=O)[C@H](Cc2c[nH]c3ccccc23)NC(=O)[C@H](Cc2c[nH]c3ccccc23)NC(=O)[C@H](Cc2c[nH]c3ccccc23)NC(=O)[C@H](Cc2c[nH]c3ccccc23)NC(=O)[C@H](CCCNC(=N)N)NC(=O)[C@H](CCCNC(=N)N)NC(=O)[C@H](CCCNC(=N)N)NC1=O [c[R4W5C]]
pH-dependent interaction with / partitioning into the lipid bilayer of membrane ([1]; fluorescence and CD, POPC liposomes, pH 8 and pH 3): does not exhibit pH-dependent changes

CWEWEWEWEW [l(CW(EW)4)]
apparent pK (pKa) of peptide's partitioning into the bilayer [3]: 5.7

alpha-amanitin
cell death by amanitin alone [4]: does not induce cell death
